Laboratory results as given in US9790470B2, “In vitro pancreatic differentiation of pluripotent mammalian cells” (Cambridge Enterprise Limited, priority 2012, dated 2017).

B1: Noggin: BMP inhibitor (BMP antagonist protein) (protein, UniProt Q13253 28-232, looked up)
Noggin: QHYLHIRPAPSDNLPLVDLIEHPDPIFDPKEKDLNETLLRSLLGGHYDPGFMATSPPEDRPGGGGGAAGGAEDLAELDQLLRQRPSGAMPSEIKGLEFSEGLAQGKKQRLSKKLRRKLQMWLWSQTFCPVLYAWNDLGSRFWPRYVKVGSCFSKRSCSVPEGMVCKPSKSVHLTVLRWRCQRRGGQRCGWIPIQYPIISECKCSC
B2: Activin: dimeric polypeptide which stimulates the Activin/Nodal pathway (protein, UniProt P08476 311-426, looked up)
Inhibin beta A chain: GLECDGKVNICCKKQFFVSFKDIGWNDWIIAPSGYHANYCEGECPSHIAGTSGSSLSFHSTVINHYRMRGHSPFANLKSCCVPTKLRPMSMLYYDDGQNIIKKDIQNMIVEECGCS
modifications: Inhibin beta A chain
B3: BMP4: Bone Morphogenic Protein 4, NCBI GeneID: 652 (protein, UniProt P12644 293-408, looked up)
Bone morphogenetic protein 4: SPKHHSQRARKKNKNCRRHSLYVDFSDVGWNDWIVAPPGYQAFYCHGDCPFPLADHLNSTNHAIVQTLVNSVNSSIPKACCVPTELSAISMLYLDEYDKVVLKNYQEMVVEGCGCR

Experiments:
[1] = system: DE cells generated from hESCs; experiment: Pancreatic differentiation of hESC-derived definitive endoderm cells, QPCR of marker expression (FIG. 2); format: cell-based; settings: for expression of pancreatic (progenitor) markers: hESC derived DE cells grown 3 days; for expression of gut (CDX2) and liver markers (AFP): hESC derived DE cells
Procedure: QPCR analyses showing the expression of PDX1/HLXB9/HNF6/CDX2/AFP/SOX9/PTF1A in DE cells grown for 3 days in the presence of diverse combination of Retinoic Acid (RA), SB431542 (SB) or Activin 10 ng/ml (Act), FGF10 50 ng/ml (FGF) or SU5402 10 μM (SU), and Noggin 100 ng/ml (Nog) or BMP4 10 ng/ml.
hESCs (H9 from WiCell) and hIPSCs (BBHX8, A1ATD-1, JRO1D) (Rashid S, et al. (2010) J Clin Invest 120: 3127-3136) were grown in defined culture (Brons et al (2007) Nature 448: 191-195). Cells were passaged weekly using collagenase IV and maintained in chemically defined medium (CDM) supplemented with Activin A (10 ng/ml) and FGF2 (12 ng/ml) as described previously ((Brons et al (2007)). Differentiation was carried out as described in FIG. 1. Daily media changes were made during the entire differentiation protocol. After the DE stage (stage 1), cells were cultured in Advanced DMEM (Invitrogen) supplemented with SB-431542 (10 μM; Tocris), FGF10 (50 ng/ml; AutogenBioclear), all-trans retinoic acid (RA, 2 μM; Sigma) and Noggin (50 ng/ml; R&D Systems) for 3 days. For stage 3, the cells were cultured in Advanced DMEM+human FGF10 (50 ng/ml; AutogenBioclear), all-trans retinoic acid (RA, 2 μM; Sigma), KAAD-cyclopamine (0.25 μM; Toronto Research Chemicals) and Noggin (50 ng/ml; R&D Systems) for 3 days. For Stage 4, the cells were cultured in human KGF (FGF7) or FGF10 (50 ng/ml; R&D Systems) for 3 days. For maturation of pancreatic progenitors, cells were grown in Advanced DMEM+1% vol/vol B27 and DAPT ([…]) for 3 days and for 3 additional days in Advanced DMEM+1% vol/vol B27. Alternatively, for Stage 4, the cells were cultured in human KGF (FGF7) or FGF10 (50 ng/ml; R&D Systems) and all-trans retinoic acid (RA, 2 μM; Sigma) for 3 days. Alternatively for maturation of pancreatic progenitors, cells were grown in Advanced DMEM+1% vol/vol B27, all-trans retinoic acid (RA, 2 μM; Sigma) and DAPT ([…]) for 3 days and for 3 additional days in Advanced DMEM+1% vol/vol B27 and all-trans retinoic acid (RA, 2 μM; Sigma).
(§1) Methods for RT-QPCR were described in Touboul T et al. (2010). Hepatology 51: 1754-1765. All data are presented as average of 3 independent biological triplicates and error bars indicate standard deviation.
We recently established a defined culture system to differentiate hESCs and hIPSCs into near homogenous populations of Definitive Endoderm (DE) cells (Teo A K et al. (2011) Genes Dev 25: 238-250). Importantly, this culture system relies on a chemically defined medium (CDM) devoid of animal products, including BSA, serum, complex extra cellular matrix such as Matrigel™, or feeders cells; thereby avoiding the presence of unknown factors which could interfere with experimental outcomes. To further extend this protocol, we screened a broad number of combinations of growth factors and inhibitors of signalling pathways to identify defined culture conditions driving differentiation of DE cells into pancreatic progenitors. […] We then sought to validate and optimise the role of each of these additives.

DE cells = experiment: Ventral foregut / hepatic specification of DE cells, Q-PCR of hepatic markers (FIGS. 7, 8); format: cell-based, human
Text: as §1
During the screening of the culture conditions described above, we noted that DE cells grown in the presence of Activin acquired the appearance of foetal hepatocytes with large darkened cytoplasmic space and canaliculi-like structures. […] Alternatively, unknown signaling pathways could activate the same program of differentiation.

Molecule | expression of pancreatic (progenitor) markers ([1]; QPCR, FIG. 2) | expression of gut (CDX2) and liver markers (AFP) ([1]; QPCR, FIG. 2) | expression of ventral foregut / liver bud / hepatic markers (DE cells; FIGS. 7 and 8) | further results
NC(=O)c1ccc(-c2nc(-c3ccc4c(c3)OCO4)c(-c3ccccn3)[nH]2)cc1 [SB431542, 4-(5-Benzol[1,3]dioxol-5-yl-4-pyridin-2-yl-1H-imidazol-2-yl)-benzamide hydrate] | had the opposite effect |  |  | expression of ventral foregut / liver bud / hepatic markers (DE cells; FIGS. 7 and 8, hydrate): decreases the expression of hepatic markers; expression of ventral foregut / liver bud / hepatic markers (DE cells; FIGS. 7 and 8, listed as SB, hydrate): decreased the expression of HNF4α, SOX17, HEX and TBX3
CC1=C(/C=C/C(C)=C/C=C/C(C)=C/C(=O)O)C(C)(C)CCC1 [RA, (2E,4E,6E,8E)-3,7-dimethyl-9-(2,6,6-trimethylcyclohexen-1-yl)nona-2,4,6,8-tetraenoic acid] | necessary for the induction of pancreatic specification |  |  | 
Cc1c[nH]c(/C=C2\C(=O)Nc3ccccc32)c1CCC(=O)O [SU5402] | did not affect the expression of pancreatic progenitor markers | augmented | decreases the expression of hepatic markers | cell death ([1]; FGF inhibition during pancreatic differentiation): significant cell death; expression of PTF1A ([1]; absence of FGF signalling, QPCR, FIG. 2): strongly reduced
B1 |  |  | decreases the expression of hepatic markers | HNF4 expression (DE cells; FIG. 8): moderate decrease
B2 | abolished the expression of pancreatic markers |  | expressed genes marking ventral foregut | 
B3 | significant decrease in the expression of pancreatic progenitor markers | inducing gut (CDX2) and liver markers (AFP) |  | 
